We go through 6 compounds from patent US11344510B2, “Arylcyclohexylamine derivatives and their use in the treatment of psychiatric disorders” (Gilgamesh Pharmaceuticals, Inc., priority 2019, dated 2022).

A short description of series [1]: HLM stability (Low Activity). Particulars: both sexes, human, liver microsomes, pH 7.4, Condition 1 (Low Activity), 0.42 mg protein/mL. Format: in vitro ADME. For orientation: Liver microsomes are vesicles of endoplasmic reticulum, rich in cytochrome P450 enzymes.
The target in the next series is MK-801 site of NMDAR (Rattus norvegicus, UniProt P35439). The following applies: read-out: NMDAR Ki ± SEM, from Ebert et al. 1997; cited from earlier work.
Series [2] deals with mice (conditioned place preference model of abuse liability). Briefly: Conditioned place preference in mice. Particulars: s.c., 3 drug conditioning trials, relative to saline vehicle. The class given is in vivo, C57BL/6 mice. How it is done:
Animals. Male C57BL/6 mice, 5-8 weeks of age, (body weight 25-30 g; Envigo, Indianapolis, Ind., USA) were housed 5 per polycarbonate tub with soft bedding in a temperature- and humidity-controlled vivarium. Mice were maintained under a 12-h light/dark cycle with lights on at 06:00. Food and water were available ad libitum Animals acclimated to the vivarium 1 week prior to experimental manipulations.
Drugs and Drug Administration. Test compounds and saline vehicle were administered subcutaneously (s.c.), with doses calculated based on the HCl salt, while the positive control oxycodone was administered intraperitoneally (i.p.), with the dose calculated based on the HCl salt. Normal saline was used as the vehicle. […]
Conditioned Place Preference. Reward and/or aversion was assessed in conditioned place preference chambers (Model MED-CPP-3013; Med Associates, St. Albans, Vt.). […]
Group size was n=10 per treatment. […] Final drug preference is assessed in a 15-minute post-conditioning trial and is calculated by subtracting the time in the drug-paired compartment at baseline from the time in the drug-paired compartment post-conditioning, with positive values reflecting reward and negative values reflecting aversion.
For all trials, time spent in chambers as well as movement was quantified by infrared photobeam detectors and calculated by Med-PC IV software. […]

The nature of series [3]: HLM stability (Low Activity, Alternative Method). Format: in vitro ADME. The following applies: both sexes, human, liver microsomes, pH 7.4, Condition 1 column, values marked *: Low Activity, 0.50 mg protein/mL. The procedure, abridged: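 Pooled male and female human liver microsomes (0.50 mg/mL) in 100 mM PBS pH 7.4 with 1 mM MgCl2 and 1 mM NADPH, compound 1 μM (1.0% solvent), 37° C with shaking, six time points over 60 min. Parent remaining measured by LC-MS/MS; kel, t1/2 and Clint from linear regression of ln(AUC) versus time.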

Where a name gives a salt, the structure may show the parent alone.

The half-life is the time in which the quantity being followed falls by half. Read a low half-life as fast loss. In general, microsomal CLint refers to a measure of how fast metabolising enzymes remove a compound, apart from limits set by blood flow. Low readings indicate greater metabolic stability, high ones faster metabolism. By Ki is commonly meant a dissociation constant, usually derived from enzyme kinetics or from competition with a known ligand.

In series [1], `CNC1(c2ccccc2)CCCCC1=O` (racemic) [Compound 14rac, 2-(methylamino)-2-phenylcyclohexan-1-one hydrochloride] registered a half-life at 2 μM of 5.47 h and an intrinsic clearance (microsomal CLint) at 2 μM of 5 µL/min/mg.

As to `CNC1(c2ccccc2Cl)CCCCC1=O` (racemic) [rac-ketamine, racemic ketamine, reference compound], in series [1], the half-life at 2 μM was 1.31 h and the intrinsic clearance (microsomal CLint) at 2 μM came to 21 µL/min/mg. Also, on MK-801 site of NMDAR, the inhibition constant Ki is 530 ± 78 nM. For `CN[C@@]1(c2ccccc2)CCCCC1=O` [Compound 14R, (R)-2-(methylamino)-2-phenylcyclohexan-1-one], the “conditioned place preference (abuse liability)” value in series [2] is listed as “neither preference nor aversion”. Still for that read-out and setting: next, `CN[C@]1(c2ccccc2)CCCCC1=O` [Compound 14S, (S)-2-(methylamino)-2-phenylcyclohexan-1-one]: “dose-dependent and significant preference”. As to `Cc1ccccc1[C@]1(N)CCCCC1=O` [Compound 114R, (R)-2-amino-2-(o-tolyl)cyclohexan-1-one], in series [3], the half-life at 1 μM was more than 2.42 h and the microsomal CLint at 1 μM is less than 9.6 µL/min/mg.

In series [3], `Cc1ccccc1[C@@]1(N)CCCCC1=O` [Compound 114S, (S)-2-amino-2-(o-tolyl)cyclohexan-1-one] came in with a half-life at 1 μM of more than 2.42 h and a microsomal CLint at 1 μM of less than 9.6 µL/min/mg.
